These results are taken from US12295936B2, “Immunomodulating urea azalides” (Zoetis Services LLC, priority 2020, dated 2025).

One assay deals with TNF-α. Briefly: LPS-stimulated whole bovine blood assay, MSD cytokine detection. To be noted: Bos taurus, read-out: TNF-α (IC50 μM). Type of assay: cell-based.
The next assay concerns IL-1β. The description is as above. It is filed as cell-based. To be noted: overstimulation of IL-1β, LPS-stimulated bovine whole blood.
Assay [1] deals with BRD pathogens, M. haemolytica and P. multocida. Briefly: MIC screening panel of BRD pathogens (antibacterial / non-antibacterial). The following applies: read-out: antibacterial / non-antibacterial (MIC for the BRD pathogens).
The subject of the next assay is IL-6. Briefly: LPS-stimulated whole bovine blood assay, MSD cytokine detection. To be noted: Bos taurus, read-out: IL-6 (IC50 μM). It is filed as cell-based. The source says:
In order to correlate RNA sequencing data to cytokine changes the whole blood assay was utilized. […] The enhancement result represents an overall stimulation of cytokine levels due to cellular stress or potential toxicity with increasing concentrations of the compound, representing a typical bell shape response curve for immunomodulatory activity.

[2] abbreviates: LPS-stimulated bovine whole blood.

Read-outs that look alike come from different tables or passages of the source. A value given as a limit tells only on which side of the number the result lay.

`CC[C@H]1OC(=O)[C@H](C)[C@@H](O)[C@H](C)[C@@H](O[C@@H]2O[C@H](C)C[C@H](N(C)C(=O)Nc3ccc(OC)cc3)[C@H]2O)[C@](C)(O)C[C@@H](C)CN[C@H](C)[C@@H](O)[C@]1(C)O` [Example A-22, 1-((2S,3R,4S,6R)-2-(((2R,3S,4R,5R,8R,10R,11R,12S,13S,14R)-2-ethyl-3,4,10,13-tetrahydroxy-3,5,8,10,12,14-hexamethyl-15-oxo-1-oxa-6-azacyclopentadecan-11-yl)oxy)-3-hydroxy-6-methyltetrahydro-2H-pyran-4-yl)-3-(4-methoxyphenyl)-1-methylurea]: the values for the IC50 in the assay with TNF-α (setting [2]) and with IL-6 (setting [2]) were > 250 µM and 246 µM, respectively. The “IL-1β OS of LPS” value in the assay with IL-1β worked out at 100 µM. For the same molecule, the MIC in assay [1] was > 64 µg/mL.
Consider `CC[C@H]1OC(=O)[C@H](C)[C@@H](O[C@H]2C[C@@](C)(OC)[C@@H](O)[C@H](C)O2)[C@H](C)[C@@H](O[C@@H]2O[C@H](C)C[C@H](N(C)C(=O)Nc3ccc(C(F)(F)F)cc3)[C@H]2O)[C@](C)(O)C[C@@H](C)CN(C)[C@H](C)[C@@H](O)[C@]1(C)O` [Example B-8, 1-((2S,3R,4S,6R)-2-(((2R,3S,4R,5R,8R,10R,11R,12S,13S,14R)-2-ethyl-3,4,10-trihydroxy-13-(((2R,4R,5S,6S)-5-hydroxy-4-methoxy-4,6-dimethyltetrahydro-2H-pyran-2-yl)oxy)-3,5,6,8,10,12,14-heptamethyl-15-oxo-1-oxa-6-azacyclopentadecan-11-yl)oxy)-3-hydroxy-6-methyltetrahydro-2H-pyran-4-yl)-1-methyl-3-(4-(trifluoromethyl)phenyl)urea], for which the half-maximal inhibitory concentration (IC50) (commonly the midpoint of a concentration-inhibition curve) worked out at 2 µM with TNF-α (setting [2]) and 8 µM in the assay with IL-6 (setting [2]). Further, the “IL-1β OS of LPS” value in the assay on IL-1β is 6 µM. Besides, the MIC in assay [1] was > 64 µg/mL.
In the same order, the values of `CC[C@H]1OC(=O)[C@H](C)[C@@H](O[C@H]2C[C@@](C)(OC)[C@@H](O)[C@H](C)O2)[C@H](C)[C@@H](O[C@@H]2O[C@H](C)C[C@H](N(C)C(=O)Nc3ccc(F)cc3)[C@H]2O)[C@](C)(O)C[C@@H](C)CN(C)[C@H](C)[C@@H](O)[C@]1(C)O` [Example B-9, 1-((2S,3R,4S,6R)-2-(((2R,3S,4R,5R,8R,10R,11R,12S,13S,14R)-2-ethyl-3,4,10-trihydroxy-13-(((2R,4R,5S,6S)-5-hydroxy-4-methoxy-4,6-dimethyltetrahydro-2H-pyran-2-yl)oxy)-3,5,6,8,10,12,14-heptamethyl-15-oxo-1-oxa-6-azacyclopentadecan-11-yl)oxy)-3-hydroxy-6-methyltetrahydro-2H-pyran-4-yl)-3-(4-fluorophenyl)-1-methylurea] are 107 µM, 116 µM, 28 µM and > 64 µg/mL.
Turning to `CC[C@H]1OC(=O)[C@H](C)[C@@H](O[C@H]2C[C@@](C)(OC)[C@](O)(Cn3ncnn3)[C@H](C)O2)[C@H](C)[C@@H](O[C@@H]2O[C@H](C)C[C@H](N(C)C(=O)N(C)c3ccccc3)[C@H]2O)[C@](C)(O)C[C@@H](C)CN[C@H](C)[C@@H](O)[C@]1(C)O` [Example J-30, 1-((2S,3R,4S,6R)-2-(((2R,3S,4R,5R,8R,10R,11R,12S,13S,14R)-13-(((2R,4R,5S,6S)-5-((2H-tetrazol-2-yl)methyl)-5-hydroxy-4-methoxy-4,6-dimethyltetrahydro-2H-pyran-2-yl)oxy)-2-ethyl-3,4,10-trihydroxy-3,5,8,10,12,14-hexamethyl-15-oxo-1-oxa-6-azacyclopentadecan-11-yl)oxy)-3-hydroxy-6-methyltetrahydro-2H-pyran-4-yl)-1,3-dimethyl-3-phenylurea], the half-maximal inhibitory concentration (IC50) was 16 µM in the assay with TNF-α and 111 µM with IL-6. The “IL-1β OS of LPS” value in the assay on IL-1β turned out to be 40 µM.
